Seven molecules from BindingDB's records for PubMed 1988661 (Merck Sharp & Dohme Research Laboratories, 1991) can be followed below.

Changes are numbered by the printed parent chain. Where “and” joins values, the source holds several entries; their conditions need not be identical. Equal entries are not always repeated. Square brackets hold non-standard residues; d marks the D form. Peptide text beside a SMILES is read from it. dPiz(1,6-dehydro) = O=C(O)[C@H]1CCC=NN1; Pip = O=C(O)[C@@H]1CCCCN1; dPip = O=C(O)[C@H]1CCCCN1

The term Ki denotes the dissociation constant of the complex between target and ligand, obtained from inhibition or displacement.

Assay [1] concerns the target T1, Oxytocin receptor (Rattus norvegicus, UniProt P70536).
T1 sequence (P70536 whole entry): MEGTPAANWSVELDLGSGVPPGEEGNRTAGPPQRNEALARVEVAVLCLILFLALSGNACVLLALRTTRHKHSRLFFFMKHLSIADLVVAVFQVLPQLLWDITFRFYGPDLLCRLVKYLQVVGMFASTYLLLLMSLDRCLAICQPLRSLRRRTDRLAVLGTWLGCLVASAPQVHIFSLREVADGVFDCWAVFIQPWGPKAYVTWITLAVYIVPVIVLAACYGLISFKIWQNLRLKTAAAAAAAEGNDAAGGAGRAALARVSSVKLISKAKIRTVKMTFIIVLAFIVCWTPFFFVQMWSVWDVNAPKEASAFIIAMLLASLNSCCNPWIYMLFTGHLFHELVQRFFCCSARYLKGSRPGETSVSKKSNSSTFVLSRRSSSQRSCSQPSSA

Assay [2] has as its target T2, Oxytocin receptor (Macaca mulatta, UniProt P56494).
T2 sequence (P56494 whole entry): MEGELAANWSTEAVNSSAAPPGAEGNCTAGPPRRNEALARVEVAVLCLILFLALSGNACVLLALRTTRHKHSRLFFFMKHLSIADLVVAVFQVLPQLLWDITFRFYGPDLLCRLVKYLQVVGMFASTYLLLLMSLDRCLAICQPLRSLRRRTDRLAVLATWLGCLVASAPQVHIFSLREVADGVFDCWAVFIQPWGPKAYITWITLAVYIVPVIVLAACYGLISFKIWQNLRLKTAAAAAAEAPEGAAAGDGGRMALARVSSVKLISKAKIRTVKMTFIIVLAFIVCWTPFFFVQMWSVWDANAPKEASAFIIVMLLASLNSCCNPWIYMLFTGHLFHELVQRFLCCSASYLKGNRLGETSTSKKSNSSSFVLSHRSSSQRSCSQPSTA

The target in assay [3] is T3, Oxytocin receptor (Homo sapiens, UniProt P30559).
T3 sequence (P30559 whole entry): T2 sequence (P56494 whole entry) with E4A, T11A, V14A, S16A, C27R, F51L, H69Q, M255V, N355R, T362A

For a further assay, the target named is Vasopressin V2 receptor (Rattus norvegicus, UniProt Q00788).
Vasopressin V2 receptor, sequence (Q00788 whole entry): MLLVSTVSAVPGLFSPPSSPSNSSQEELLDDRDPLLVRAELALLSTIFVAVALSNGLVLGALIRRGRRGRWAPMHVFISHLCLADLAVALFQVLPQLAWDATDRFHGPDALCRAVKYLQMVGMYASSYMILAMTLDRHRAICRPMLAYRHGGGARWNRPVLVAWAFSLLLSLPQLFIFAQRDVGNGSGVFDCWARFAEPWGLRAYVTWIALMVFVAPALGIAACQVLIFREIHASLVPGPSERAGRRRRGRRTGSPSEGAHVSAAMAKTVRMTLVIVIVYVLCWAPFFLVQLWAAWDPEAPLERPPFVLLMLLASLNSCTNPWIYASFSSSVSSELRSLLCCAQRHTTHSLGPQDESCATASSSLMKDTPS
The target in assay [4] is T4, Rat vasopressin-neurophysin (Rattus norvegicus, UniProt Q6LEI5).
T4 sequence (Q6LEI5 whole entry): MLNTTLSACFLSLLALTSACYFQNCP

Take `CC[C@H](C)[C@@H]1NC(=O)[C@@H](Cc2c[nH]c3ccccc23)NC(=O)[C@@H]2CCCN2C(=O)[C@@H](Cc2cnc[nH]2)NC(=O)[C@@H]2CCCCN2C(=O)[C@H]2CCC=NN2C1=O` [J325.349J] (cyclo(I[dPiz(1,6-dehydro)][Pip][dH]P[dW])): the Ki was 1.3 nM and 2.5 nM on Oxytocin receptor [1]; 2.3 nM on Oxytocin receptor [2]; 1.3 nM at Oxytocin receptor [3]; 370 nM on Vasopressin V2 receptor; 1200 nM in assay [4].

On to `CC[C@H](C)[C@@H]1NC(=O)[C@@H](Cc2ccccc2)NC(=O)[C@@H]2CCCN2C(=O)[C@@H](Cc2ccccc2)N(C)C(=O)[C@H]2CCC=NN2C1=O` [J440.774A], for which the Ki on Oxytocin receptor [1] was 6 nM and 13 nM; on Oxytocin receptor [2], 33 nM; on Oxytocin receptor [3], 21 nM; on Vasopressin V2 receptor, 550 nM; in assay [4] it was 240 nM.

In the case of `CCC(C)C(NC(=O)C(N)Cc1ccc2ccccc2c1)C(=O)C1(C=O)CCCN1C(=O)C(N)CC1=NC(C(=O)N2CCCCC2)(C(=O)N2CCCCC2)N=C1` (centres undefined) [NSC_188397], the Ki at Oxytocin receptor [1] was 0.7 nM and 0.8 nM; at Oxytocin receptor [2], 6.4 nM; on Oxytocin receptor [3] it was 5.1 nM; on Vasopressin V2 receptor, 810 nM and 320 nM; in assay [4], 760 nM.

With `CC[C@H](C)[C@@H]1NC(=O)[C@@H](Cc2c[nH]c3ccccc23)NC(=O)[C@@H]2CCCN2C(=O)[C@@H](Cc2c[nH]cn2)NC(=O)[C@@H]2CCCCN2C(=O)[C@H]2CCCCN2C1=O` [CAS_196819] (cyclo(I[dPip][Pip][dH]P[dW])), the inhibition constant (Ki) at Vasopressin V2 receptor is 3100 nM; in assay [4] it was 2200 nM.

As to `CCC(C)C(N)C(=O)N(C(=O)C1CCCN1C(=O)C(CC1=CC=CCC1(C(=O)N1C=CC=CC1)C(=O)N1CCNCC1)NC)C(C=O)Cc1c[nH]c2ccccc12` (centres undefined) [NSC_3083084], the Ki at Oxytocin receptor [1] was 3.4 nM and 4.2 nM; at Oxytocin receptor [2], 4.7 nM; at Oxytocin receptor [3], 4.5 nM; at Vasopressin V2 receptor, 240 nM; in assay [4], 9500 nM.

Take `CCC(C)C1NC(=O)[C@H](Cc2ccccc2)NC(=O)[C@H]2CCCN2C(=O)[C@H](Cc2ccccc2)N(C)C(=O)[C@@H]2CCC=NN2C(=O)[C@H]2CCC=NN2C1=O` (some centres undefined) [J325.338D]: the Ki on Oxytocin receptor [1] was 7.3 nM and 12 nM; on Oxytocin receptor [2], 12 nM.

Take `CCC(C)C1NC(=O)[C@H](Cc2ccccc2)NC(=O)[C@H]2CCCN2C(=O)[C@H](Cc2ccccc2)N(C)C(=O)[C@H]2CC(CN(C)C)CNN2C(=O)[C@H]2CCC=NN2C1=O` (some centres undefined) [J440.775J]: the Ki at Oxytocin receptor [1] is 4.3 nM and 6.2 nM; at Oxytocin receptor [2], 8.1 nM; at Oxytocin receptor [3] it was 4.1 nM; at Vasopressin V2 receptor it was 1100 nM; in assay [4] it was 550 nM.
